Substitutions are numbered along the chain they refer to.
Assays:
[1] = target: Histone-lysine N-methyltransferase ASH1L (Homo sapiens) (UniProt Q9NR48); experiment: Selectivity interaction (Methyltransferase screen (radiometric assays, panel of 8 PRMTs, 21 protein lysine methyltransferases, 3 DNA methyltransferases, and one RNA methyltransferase)) EUB0000272b ASH1L
[2] = target: T1, Phosphatidylinositol 5-phosphate 4-kinase type-2 gamma (Homo sapiens) (UniProt Q8TBX8); experiment: Selectivity interaction (KinomeScan (DiscoverX)) EUB0000229b PIP4K2C; conditions: at 10 µM
T1 sequence (whole entry): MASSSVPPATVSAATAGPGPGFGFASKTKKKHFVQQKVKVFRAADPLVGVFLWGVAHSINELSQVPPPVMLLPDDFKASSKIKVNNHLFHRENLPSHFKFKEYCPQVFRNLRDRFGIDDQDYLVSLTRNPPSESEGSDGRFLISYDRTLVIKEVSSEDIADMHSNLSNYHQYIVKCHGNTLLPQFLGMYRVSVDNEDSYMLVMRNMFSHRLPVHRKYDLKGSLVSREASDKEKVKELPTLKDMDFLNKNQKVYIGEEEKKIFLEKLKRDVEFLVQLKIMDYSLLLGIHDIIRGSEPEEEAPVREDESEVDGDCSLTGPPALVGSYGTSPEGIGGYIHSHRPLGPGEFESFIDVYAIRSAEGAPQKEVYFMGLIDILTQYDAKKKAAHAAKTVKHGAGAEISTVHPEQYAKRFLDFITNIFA

[3] = system: T2, Receptor-type tyrosine-protein kinase FLT3 (Homo sapiens), P36888 [D835Y]; experiment: (§1) Selectivity interaction (KinomeScan (DiscoverX)) EUB0000092b FLT3; conditions: at 10 µM
T2 sequence (whole entry): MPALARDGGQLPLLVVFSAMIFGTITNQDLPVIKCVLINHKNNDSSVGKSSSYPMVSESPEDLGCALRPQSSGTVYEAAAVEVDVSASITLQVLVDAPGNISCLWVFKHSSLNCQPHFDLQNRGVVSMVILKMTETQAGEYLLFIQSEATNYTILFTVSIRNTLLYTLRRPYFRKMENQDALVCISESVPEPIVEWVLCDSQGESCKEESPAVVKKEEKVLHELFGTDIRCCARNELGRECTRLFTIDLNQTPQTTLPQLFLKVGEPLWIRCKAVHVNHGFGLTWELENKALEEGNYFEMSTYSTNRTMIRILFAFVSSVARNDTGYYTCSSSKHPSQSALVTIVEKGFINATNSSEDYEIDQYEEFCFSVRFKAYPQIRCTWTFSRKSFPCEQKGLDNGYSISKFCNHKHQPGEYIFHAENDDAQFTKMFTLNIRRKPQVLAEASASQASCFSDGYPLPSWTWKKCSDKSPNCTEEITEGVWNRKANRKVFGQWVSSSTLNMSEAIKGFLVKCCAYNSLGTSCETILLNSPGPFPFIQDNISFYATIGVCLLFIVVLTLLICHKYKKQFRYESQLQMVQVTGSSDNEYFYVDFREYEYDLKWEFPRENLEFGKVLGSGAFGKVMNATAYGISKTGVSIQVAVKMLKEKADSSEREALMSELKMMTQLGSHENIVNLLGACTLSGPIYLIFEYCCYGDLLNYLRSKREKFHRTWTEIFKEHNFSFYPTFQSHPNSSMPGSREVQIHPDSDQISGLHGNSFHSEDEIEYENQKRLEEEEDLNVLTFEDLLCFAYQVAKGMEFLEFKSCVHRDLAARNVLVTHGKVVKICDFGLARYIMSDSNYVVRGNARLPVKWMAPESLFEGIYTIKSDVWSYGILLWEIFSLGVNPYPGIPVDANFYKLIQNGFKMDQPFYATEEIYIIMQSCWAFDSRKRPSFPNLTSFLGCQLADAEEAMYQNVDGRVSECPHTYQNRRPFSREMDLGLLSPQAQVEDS

[4] = system: T3, Receptor-type tyrosine-protein kinase FLT3 (Homo sapiens), P36888 [D835H]; experiment: as §1; conditions: at 10 µM
T3 sequence (whole entry): T2 sequence (whole entry) with Y835H

[5] = target: RAC-beta serine/threonine-protein kinase (Homo sapiens) (UniProt P31751); experiment: Selectivity interaction (Rxn Biology Kinase assay) EUB0001632a AKT2; conditions: at 10 µM
[6] = target: Fibroblast growth factor receptor 2 (Homo sapiens) (UniProt P21802); experiment: Selectivity interaction (KinomeScan (DiscoverX)) EUB0000695a FGFR2; conditions: at 100 nM
[7] = target: Serine/threonine-protein kinase RIO2 (Homo sapiens) (UniProt Q9BVS4); experiment: Selectivity interaction (KinomeScan (DiscoverX)) EUB0000595a RIOK2; conditions: at 10 µM
Sequence of Serine/threonine-protein kinase RIO2 (Homo sapiens) (Q9BVS4 whole entry, looked up): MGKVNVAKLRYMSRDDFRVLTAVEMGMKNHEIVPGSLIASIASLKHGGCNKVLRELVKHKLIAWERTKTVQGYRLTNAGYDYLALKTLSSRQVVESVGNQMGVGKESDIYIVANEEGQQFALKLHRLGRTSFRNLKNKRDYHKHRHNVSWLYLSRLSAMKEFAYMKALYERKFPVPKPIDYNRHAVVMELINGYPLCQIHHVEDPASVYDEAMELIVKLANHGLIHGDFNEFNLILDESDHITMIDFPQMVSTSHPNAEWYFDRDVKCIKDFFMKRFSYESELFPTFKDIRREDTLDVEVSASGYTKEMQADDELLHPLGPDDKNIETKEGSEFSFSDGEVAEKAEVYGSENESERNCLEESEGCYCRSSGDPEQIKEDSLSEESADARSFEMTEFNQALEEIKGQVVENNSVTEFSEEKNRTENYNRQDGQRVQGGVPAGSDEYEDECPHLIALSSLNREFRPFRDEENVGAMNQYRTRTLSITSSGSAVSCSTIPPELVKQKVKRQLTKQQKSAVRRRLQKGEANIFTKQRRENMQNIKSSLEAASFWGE

Sequence of RAC-beta serine/threonine-protein kinase (Homo sapiens) (P31751 whole entry): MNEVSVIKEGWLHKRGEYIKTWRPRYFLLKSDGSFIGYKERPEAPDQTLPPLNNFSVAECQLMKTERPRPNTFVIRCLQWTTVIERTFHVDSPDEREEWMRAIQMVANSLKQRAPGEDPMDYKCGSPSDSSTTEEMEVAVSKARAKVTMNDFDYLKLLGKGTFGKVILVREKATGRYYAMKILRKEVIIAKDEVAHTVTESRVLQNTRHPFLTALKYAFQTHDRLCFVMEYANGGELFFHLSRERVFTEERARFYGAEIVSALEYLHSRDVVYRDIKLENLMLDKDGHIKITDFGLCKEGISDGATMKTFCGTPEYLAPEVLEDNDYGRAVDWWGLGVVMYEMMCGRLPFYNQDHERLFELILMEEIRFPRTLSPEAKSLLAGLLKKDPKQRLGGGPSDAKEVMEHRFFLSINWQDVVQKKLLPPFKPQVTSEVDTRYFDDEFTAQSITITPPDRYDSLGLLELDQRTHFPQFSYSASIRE
Sequence of Fibroblast growth factor receptor 2 (Homo sapiens) (P21802 22-821 limits assumed): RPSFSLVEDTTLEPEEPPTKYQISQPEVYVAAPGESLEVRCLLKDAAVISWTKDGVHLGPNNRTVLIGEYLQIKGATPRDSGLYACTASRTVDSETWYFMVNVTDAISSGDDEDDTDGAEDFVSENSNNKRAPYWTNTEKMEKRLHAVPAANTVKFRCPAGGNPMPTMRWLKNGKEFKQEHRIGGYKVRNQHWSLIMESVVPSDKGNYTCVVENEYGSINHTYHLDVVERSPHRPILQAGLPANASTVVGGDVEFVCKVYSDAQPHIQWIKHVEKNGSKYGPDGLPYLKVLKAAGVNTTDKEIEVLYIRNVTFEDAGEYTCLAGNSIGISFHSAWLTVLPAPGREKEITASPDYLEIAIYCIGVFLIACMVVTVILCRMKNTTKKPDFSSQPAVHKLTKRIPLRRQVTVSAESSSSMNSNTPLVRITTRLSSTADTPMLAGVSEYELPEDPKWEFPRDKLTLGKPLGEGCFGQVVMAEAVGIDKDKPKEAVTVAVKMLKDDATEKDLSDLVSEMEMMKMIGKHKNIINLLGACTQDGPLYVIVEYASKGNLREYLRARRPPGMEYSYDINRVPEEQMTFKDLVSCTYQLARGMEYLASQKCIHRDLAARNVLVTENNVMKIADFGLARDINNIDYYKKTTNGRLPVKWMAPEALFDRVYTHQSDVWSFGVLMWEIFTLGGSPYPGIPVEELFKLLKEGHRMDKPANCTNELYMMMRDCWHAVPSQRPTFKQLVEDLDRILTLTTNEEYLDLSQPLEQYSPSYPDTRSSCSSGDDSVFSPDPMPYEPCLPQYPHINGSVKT

Work on `Cc1cc(C)cc([C@H]2c3cc(C)ccc3NC(=O)CN2C(=O)c2ccc(Br)s2)c1` yielded a % of activity ([1]; at 1 µM) of 102% and a % of activity ([1]; at 10 µM) of 99.7%.

Work on `COc1cc(N(C)c2ccnc3ccc(C(F)(F)F)cc23)cc(OC)c1OC` yielded a % binding [2] of 38%.

Molecule `CCC(=O)N1CCN(c2ccc(-n3c(=O)ccc4cnc5ccc(-c6cnc7ccccc7c6)cc5c43)cc2C(F)(F)F)CC1` has a % of control [3] of 16% and a % of control [4] of 18%.

For `Cn1cc(-n2cnc3c(NCc4nc5cc(Cl)c(Cl)cc5[nH]4)nc(N4CCOCC4)nc32)cn1`, the % of inhibition [5] was 1.65%.

In the case of `Cc1cc(F)c(C(=O)Nc2cccc(-c3nncn3C(C)C)n2)cc1-n1cnc(C2CC2)c1`, the % of control [6] is reported as 97%.

`COCC(=O)NC/C=C/c1ccc2ncnc(Nc3ccc(Oc4ccc(C)nc4)c(C)c3)c2c1` [CP-724714] gave a % of control [7] of 100%.
